Measurements published in PubChem BioAssay AID2060896 (Molecular Pharmacology Branch, DTP, NCI, 2025).

Test system: 941728-121-R-J1-PDC complex spheroid viability
Experiment: Anticancer human tumor 941728-121-R-J1-PDC patient-derived lung adenocarcinoma cell line growth inhibition [RAS]
Settings: for IC50: curve of first compound; for viability, T/C: stronger effect = lower value
How it was run: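 Multi-cell-type spheroids: tumor cells plus HUVEC endothelial cells and mesenchymal stem cells. RAS-pathway inhibitors were combined with targeted agents, each dosed in half-log steps down from clinical Cmax, or from 10 microM when Cmax was unknown.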
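Also: spheroids exposed to compounds for 7 days before readout.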
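For viability, T/C in this document: 100% = DMSO vehicle control viability.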

## CC(=O)OC12COC1CC(O)C1(C)C(=O)C(O)C3=C(C)C(OC(=O)C(O)C(NC(=O)OC(C)(C)C)c4ccccc4)CC(O)(C(OC(=O)c4ccccc4)C21)C3(C)C (configuration not stated) + CCn1c(-c2cccnc2C(C)OC)c2c3cc(ccc31)N1CCOC(CC(NC(=O)C(C(C)C)N(C)C(=O)C3(F)CCN(C(=O)C#CC(C)(C)N(C)C)CC3)C(=O)N3CCCC(N3)C(=O)OCC(C)(C)C2)C1
Second compound 0.000949 µM
  IC50: < 0.0316 µM
Second compound 0.003 µM
  IC50: < 0.0316 µM
Second compound 0.00949 µM
  IC50: < 0.0316 µM
Second compound 0.03 µM
  IC50: < 0.0316 µM
Second compound 0.0949 µM
  IC50: < 0.0316 µM
Second compound 0.3 µM
  IC50: < 0.0316 µM
Second compound 0.000949 µM, first compound 0.0316 µM
  viability, T/C: 18.3%
Second compound 0.000949 µM, first compound 0.1 µM
  viability, T/C: 15.4%
Second compound 0.000949 µM, first compound 0.316 µM
  viability, T/C: 11.9%
Second compound 0.000949 µM, first compound 1 µM
  viability, T/C: 15.6%
Second compound 0.000949 µM, first compound 3.16 µM
  viability, T/C: 15.1%
Second compound 0.000949 µM, first compound 10 µM
  viability, T/C: 14.2%
Second compound 0.003 µM, first compound 0.0316 µM
  viability, T/C: 17.3%
Second compound 0.003 µM, first compound 0.1 µM
  viability, T/C: 15.6%
Second compound 0.003 µM, first compound 0.316 µM
  viability, T/C: 13.1%
Second compound 0.003 µM, first compound 1 µM
  viability, T/C: 14.4%
Second compound 0.003 µM, first compound 3.16 µM
  viability, T/C: 14.9%
Second compound 0.003 µM, first compound 10 µM
  viability, T/C: 11.1%
Second compound 0.00949 µM, first compound 0.0316 µM
  viability, T/C: 16.9%
Second compound 0.00949 µM, first compound 0.1 µM
  viability, T/C: 13.9%
Second compound 0.00949 µM, first compound 0.316 µM
  viability, T/C: 13.1%
Second compound 0.00949 µM, first compound 1 µM
  viability, T/C: 13.8%
Second compound 0.00949 µM, first compound 3.16 µM
  viability, T/C: 12.7%
Second compound 0.00949 µM, first compound 10 µM
  viability, T/C: 12.7%
Second compound 0.03 µM, first compound 0.0316 µM
  viability, T/C: 17.6%
Second compound 0.03 µM, first compound 0.1 µM
  viability, T/C: 16.2%
Second compound 0.03 µM, first compound 0.316 µM
  viability, T/C: 14.4%
Second compound 0.03 µM, first compound 1 µM
  viability, T/C: 13%
Second compound 0.03 µM, first compound 3.16 µM
  viability, T/C: 14.6%
Second compound 0.03 µM, first compound 10 µM
  viability, T/C: 16.3%
Second compound 0.0949 µM, first compound 0.0316 µM
  viability, T/C: 15.9%
Second compound 0.0949 µM, first compound 0.1 µM
  viability, T/C: 15.1%
Second compound 0.0949 µM, first compound 0.316 µM
  viability, T/C: 16.1%
Second compound 0.0949 µM, first compound 1 µM
  viability, T/C: 15.3%
Second compound 0.0949 µM, first compound 3.16 µM
  viability, T/C: 13.6%
Second compound 0.0949 µM, first compound 10 µM
  viability, T/C: 17.3%
Second compound 0.3 µM, first compound 0.0316 µM
  viability, T/C: 16.8%
Second compound 0.3 µM, first compound 0.1 µM
  viability, T/C: 17.5%
Second compound 0.3 µM, first compound 0.316 µM
  viability, T/C: 16.6%
Second compound 0.3 µM, first compound 1 µM
  viability, T/C: 15.9%
Second compound 0.3 µM, first compound 3.16 µM
  viability, T/C: 15.8%
Second compound 0.3 µM, first compound 10 µM
  viability, T/C: 16.9%
